Experimental findings from PubChem BioAssay (NCI) are described below.

Some test systems named below: UACC-62 melanoma; HCT-15 colon; ACHN renal; NCI-H226 lung; MDA-N; HT29 colon; SF-539 CNS; IGROV1 ovarian; HCC-2998 colon.
Holding throughout (experiment): NCI anticancer screen, dose series, 48 h

The structures appear in SMILES notation. “And” between values parts separate entries of the source, which are not always exact repeats. Identical values can stand only once.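 Values below derive from 48-hour exposures of cells grown in 96-well plates, with endpoints linearly interpolated between the two concentrations bracketing the appropriate inhibition level. At the GI50, growth is halved. TGI denotes the concentration required for complete inhibition of growth.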

Consider `COc1ccc(C(F)(F)F)cc1NC(=O)O/N=C(/Cl)C(C)C`, for which the TGI is 36.7 µM with UACC-62 melanoma; more than 30.4 µM with HCT-15 colon; 26.7 µM in the assay with ACHN renal; 35.6 µM in the assay with NCI-H226 lung; 32.4 µM with MDA-N; 53.3 µM in the assay on HT29 colon. Besides, the TGI came to 37 µM in the assay with SF-539 CNS, 36.2 µM with IGROV1 ovarian and 39.3 µM with HCC-2998 colon.
`COC(=O)c1ccccc1C1CN=NC12Cc1c(C)c3c(c(C)c1C2=O)CCC3` (configuration not stated): the TGI with UACC-62 melanoma, in the assay on HCT-15 colon, with ACHN renal, with NCI-H226 lung, in the assay on MDA-N and with HT29 colon was more than 100 µM in each case. Further, the TGI in the assay on SF-539 CNS, in the assay with IGROV1 ovarian and with HCC-2998 colon was more than 100 µM in each case.
Turning to `COc1cccc(NC(=O)c2c(SC)n[nH]c2N)c1`, the TGI in the assay with UACC-62 melanoma, in the assay on HCT-15 colon, in the assay with ACHN renal, with NCI-H226 lung, in the assay on MDA-N and in the assay with HT29 colon was more than 100 µM throughout. In addition, the TGI with SF-539 CNS, with IGROV1 ovarian and in the assay with HCC-2998 colon was more than 100 µM in each case.
`N#C/C(=C\N1CCNC1=S)C(=O)c1ccc2ccccc2c1`: the TGI with UACC-62 melanoma, in the assay with HCT-15 colon, in the assay with ACHN renal, in the assay with NCI-H226 lung, with MDA-N and in the assay on HT29 colon was more than 100 µM each time. Also, the TGI in the assay with SF-539 CNS, in the assay with IGROV1 ovarian and in the assay with HCC-2998 colon was more than 100 µM throughout.
As for `COC(=O)c1ccc(/C=N/c2cc(C)nn2-c2ccccc2)cc1`, the TGI with UACC-62 melanoma was more than 100 µM; in the assay on HCT-15 colon, more than 100 µM; in the assay with ACHN renal it was more than 100 µM; in the assay on NCI-H226 lung it was more than 100 µM; in the assay with MDA-N, more than 100 µM; with HT29 colon, 92.1 µM. For the same molecule, the values for the TGI with SF-539 CNS, in the assay with IGROV1 ovarian and in the assay on HCC-2998 colon were more than 100 µM, more than 100 µM and 8.05 µM, respectively.
Regarding `Cc1nc(SCC(=O)Nc2ccccc2)c2sc(=S)n(-c3ccccc3)c2n1`, the TGI with UACC-62 melanoma is more than 10 µM; in the assay with HCT-15 colon, more than 10 µM; with ACHN renal, more than 10 µM; in the assay on NCI-H226 lung it was 8.99 µM; in the assay with MDA-N, more than 10 µM; in the assay on HT29 colon, more than 10 µM. Moreover, the TGI in the assay on SF-539 CNS, in the assay with IGROV1 ovarian and in the assay with HCC-2998 colon was more than 10 µM in each case.
Consider `N#CC1(C#N)C(c2ccccc2)NC23CCCCC2C1(C#N)C(=O)N3` (configuration not stated), for which the TGI with UACC-62 melanoma, in the assay with HCT-15 colon, with ACHN renal, in the assay on NCI-H226 lung, with MDA-N and in the assay with HT29 colon was more than 100 µM each time. For the same molecule, the TGI in the assay on SF-539 CNS, in the assay with IGROV1 ovarian and in the assay with HCC-2998 colon was more than 100 µM throughout.
On to `CNNC1=NS(=O)(=O)c2cc(C(=O)OC)c(Cl)cc2S1`, for which the TGI with UACC-62 melanoma, with HCT-15 colon, in the assay on ACHN renal, with NCI-H226 lung, with MDA-N and in the assay on HT29 colon was more than 10 µM each time. Moreover, the TGI with SF-539 CNS, in the assay with IGROV1 ovarian and with HCC-2998 colon was more than 10 µM throughout.
Consider `COc1ccc(-c2c(N)n(-c3cc(OC)cc(OC)c3)c(=O)c3cc([N+](=O)[O-])ccc23)cc1`, for which the TGI in the assay on UACC-62 melanoma, in the assay on HCT-15 colon, in the assay on ACHN renal, in the assay on NCI-H226 lung, in the assay with MDA-N and in the assay on HT29 colon was more than 100 µM each time. Moreover, the TGI with SF-539 CNS, with IGROV1 ovarian and in the assay with HCC-2998 colon was more than 100 µM each time.
Consider `S=C(NNC1=NCCCCN1)Nc1ccccc1`, for which the TGI with UACC-62 melanoma, in the assay with HCT-15 colon, in the assay with ACHN renal, in the assay with NCI-H226 lung, in the assay with MDA-N and in the assay with HT29 colon was more than 100 µM each time. Further, the TGI in the assay on SF-539 CNS, in the assay on IGROV1 ovarian and in the assay on HCC-2998 colon was more than 100 µM in each case.
For the molecule `COc1cc(CSc2ccc(O)cc2)cc(O)c1O`, the TGI in the assay on UACC-62 melanoma is 61.2 µM; with HCT-15 colon, 57.1 µM; with ACHN renal, more than 100 µM; in the assay on NCI-H226 lung, 65.5 µM; in the assay on MDA-N, more than 100 µM; in the assay on HT29 colon, 46.8 µM. Further, the values for the TGI in the assay on SF-539 CNS, in the assay with IGROV1 ovarian and in the assay on HCC-2998 colon were 85.9 µM, more than 100 µM and more than 100 µM, respectively.
As for `COC(=O)c1ccc(NCc2cc(O)c3ccccc3c2O)cc1`, the TGI in the assay with UACC-62 melanoma is 10.3 µM; in the assay on HCT-15 colon, 28.8 µM; with ACHN renal, 25.7 µM; in the assay with NCI-H226 lung it was 40 µM; in the assay on MDA-N it was 3.98 µM; in the assay on HT29 colon it was 48.5 µM. Also, the TGI came out at 28.6 µM in the assay on SF-539 CNS, 25.5 µM in the assay on IGROV1 ovarian and 39.9 µM in the assay on HCC-2998 colon.
`COc1cccc(N2CCc3c(C)c(C#N)c4nc5ccccc5n4c32)c1`: the TGI in the assay with UACC-62 melanoma, with HCT-15 colon, in the assay with ACHN renal, in the assay with NCI-H226 lung, in the assay on MDA-N and in the assay with HT29 colon was more than 100 µM in each case. The TGI in the assay with SF-539 CNS, in the assay with IGROV1 ovarian and in the assay with HCC-2998 colon was more than 100 µM each time.
With `CC(=O)OCC1OC(Sc2nc(-c3ccc(C)cc3)c(C#N)c(=O)n2C2OC(COC(C)=O)C(OC(C)=O)C(OC(C)=O)C2OC(C)=O)C(OC(C)=O)C(OC(C)=O)C1OC(C)=O` (configuration not stated), the TGI with UACC-62 melanoma is more than 100 µM; in the assay on HCT-15 colon, more than 100 µM; with ACHN renal, more than 100 µM; in the assay with NCI-H226 lung it was more than 100 µM; in the assay on MDA-N, > 100 µM and 64.6 µM; with HT29 colon it was more than 100 µM. Further, the TGI in the assay on SF-539 CNS was more than 100 µM; with IGROV1 ovarian, more than 100 µM; in the assay with HCC-2998 colon it was > 100 µM and 33.2 µM. For the same molecule, the GI50 with MDA-N is > 100 µM and 10.1 µM.
